# Literature values as cited in patent US12661328B2, “Methods of treating anti-NMDAR-associated neuropsychiatric disorders” (Vanderbilt University, priority 2018, dated 2026).
# How the values were obtained:
# [1] = tested on: γ-aminobutyric acid (GABA), benzodiazepine, dopamine, adrenergic, histamine, or glycine receptors
# [2] = tested on: voltage-dependent calcium, sodium, or potassium channels
# [3] = tested on: extrasynaptic NMDA receptors; conditions: Xia et al., 2010
structure (smiles),measurement,setting,value
"CC12CC3CC(C)(C1)CC(N)(C3)C2 [Memantine, 1-amino-3,5-dimethyladamantane]","affinity for GABA, benzodiazepine, dopamine, adrenergic, histamine, or glycine receptors",[1],no affinity
same,"affinity for voltage-dependent calcium, sodium, or potassium channels",[2],no affinity
same,affinity for NMDA receptors,NMDA receptors,low to moderate-affinity
same,concentration range of relatively specific inhibition of extrasynaptic NMDA receptors,[3],low micromolar range
